Reference: patent US12145920B2, “Lanthionine c-like protein 2 ligands, cells prepared therewith, and therapies using same” (NImmune Biopharma, Inc., priority 2019, dated 2024)

What was measured:
[1] = mice, oral dose of 10 mg/kg, comparison value; cited from earlier work
[2] = system: C57BL/6 mice with CCl4-induced steatohepatitis; assay: CCl4 model of nonalcoholic steatohepatitis; assay type: in vivo; details: oral 20 mg/kg, after 2 weeks of treatment
Description: WD-induced model. C57BL/6 mice were administered bi-weekly intraperitoneal injections of 0.5 μL/g CCl4 to induce steatohepatitis for 4 weeks. Mice were treated daily, in a therapeutic manner after 2 weeks of injections. Treatment with BT-104-B (20 mg/kg) or vehicle control occurred by oral gavage. Dosage was calculated based off mean body weights.
Analysis. Livers were excised and weighed. Sections of livers were excised and stored in buffered formalin for Sirius red staining or snap frozen for assessment of fibrosis. Severity of fibrosis was assessed by scoring of Sirius red stained liver by microscopic examination.

[3] = system: NZB/W F1 mice; assay: NZB/W F1 genetic mouse model of SLE (BT-104-B); assay type: in vivo; details: spleens, 12 weeks daily oral 20 mg/kg vs vehicle
Description: NZB/W F1 model. Twenty-four-week-old, female NZB/W F1 mice were randomized into vehicle or BT-104-B treated arms based on baseline urine protein levels. BT-104-B was administered daily at 20 mg/kg for 12 weeks. Mice were weighed on a weekly basis to update dosage formulation. Dosage was calculated based off mean body weights.
Immunological analysis. Spleens were excised, crushed and filtered to provide a cellular suspension. Red blood cells were lysed. Cells were labeled with mixtures of extracellular (CD45, CD3, CD4, CD8, CD25) and intracellular (IL21, IL17, FOXP3) antibodies in a sequential live staining in 96-well plates in preparation for flow cytometry. Data was captured on a BD FACS Celesta and analyzed using FACSDiva.

[4] = system: C57B1/6 mice immunized with chicken collagen; assay: Collagen induced model of arthritis; assay type: in vivo; details: spleens, 4 weeks daily oral 20 mg/kg vs vehicle
Description: Models. Six-week-old C57B1/6 mice were immunized with 200 μg of chicken collagen emulsified in complete Freund's adjuvant by intradermal injections at the base of the tail. Mice were treated with 20 mg/kg of BT-104-B or vehicle, daily for four weeks.
Immunological analysis. Spleens were excised from mice. Tissues were crushed and filtered to provide a cellular suspension. Red blood cells were lysed. Cells were labeled with mixtures of extracellular (CD45, CD3, CD4, CD8, CD11b, CD11c) and intracellular (IFNγ, IL17, TNF) antibodies in a sequential live staining in 96-well plates in preparation for flow cytometry. Data was captured on a BD FACS Celesta and analyzed using FACSDiva.

[5] = system: CD4+ T cells; assay: Immune effects in CD4+ splenocytes, flow cytometry (wild type); assay type: cell-based, C57BL/6 mice; details: 0.1 micromolar, 48 h, vs vehicle, FIG. 4B
From the text: Cell culture. Spleens were excised from C57BL/6 mice and assessed in wild-type and LANCL2 deficient states. Spleens were crushed between the frosted ends of microscope slides and filtered to provide a cellular suspension. Red blood cells were lysed through hypotonic lysis. Remaining cells were washed and filtered. CD4+ T cells were enriched within the suspension using magnetic sorting based negative selection. Cells were collected and plated within 96 well plates coated with anti-CD3 and cultured in the presence of BT-63 at 0, 0.1, 1 and 10 micromolar or BT-104A, BT-104B, or BT-104C at 0.1 micromolar for 48 h. During the last 6 h of culture, cells were stimulated with phorbol 12-myristate-13-acetate (PMA) and ionomycin.
Immunological analysis. Cells were collected from 96 well plates and stained with a cocktail of antibodies for immunophenotyping by flow cytometry. Culture supernatant was collected and assayed for cytokine concentrations by cytometric bead array. Data was captured on a BD FACS Celesta and analyzed using FacsDiva.

Structure (SMILES)	maximum plasma concentration [1] [ng/mL]	fibrotic scoring ([2]; Sirius red)	liver weights [2]	proportion of CD25+ FOXP3+ CD4+ T cells [3]	proportion of IL21+ CD4+ T cells [3]	proportion of IL-17+ CD4+ T cells [3]	proportion of IFNγ+ CD4+ T cells [4]	proportion of IL-17+ CD4+ T cells [4]	proportion of TNF+ CD11b+ CD11c+ myeloid cells [4]	TNFa+ CD4+ T cells [5]	proportions of IFNγ+ CD4+ T cells [5]
O=C(c1cccc(-c2nc3ccccc3[nH]2)n1)N1CCN(C(=O)c2cccc(-c3nc4ccccc4[nH]3)n2)CC1 [BT-11, N,N-Bis(benzimidazolylpicolinoyl)piperazine]	4.9	–	–	–	–	–	–	–	–	–	–
O=C(CN1C(=O)CN(C(=O)c2cccc(-c3nc4ccccc4[nH]3)n2)CC1=O)c1ccccc1 [BT-104-B, 4-(6-(1H-benzo[d]imidazol-2-yl)picolinoyl)-1-(2-oxo-2-phenylethyl)piperazine-2,6-dione]	–	reduced	reduced	significantly increasing	significantly reduced	significantly reduced	significantly reduced	significantly reduced	significantly reduced	significantly decreasing	significantly decrease
CC(C)(C(=O)c1ccccc1)N1CCN(C(=O)c2cccc(-c3nc4ccccc4[nH]3)n2)CC1 [BT-104-A]	–	–	–	–	–	–	–	–	–	significantly decreasing	significantly decrease
